Laboratory results taken from PMC4125821, “Crystal structures of the S6K1 kinase domain in complexes with inhibitors” (Journal of Structural and Functional Genomics, 2014).

Molecular target: T1, human S6K1 (RPS6KB1) protein, residues 1–421 with the T412E mutation (Homo sapiens, UniProt P23443, T412E)
T1 construct: the human S6K1 (RPS6KB1) protein, residues 1–421 with the T412E mutation; purchased Carna Biosciences (Kobe, Japan)
Assay: Kinase mobility shift assay
Assay type: biochemical
Conditions: S6K1 residues 1–421, T412E mutation; 2 nM enzyme; 30 min pre-incubation; ATP 0.5 mM; FL-Peptide 26 1.5 μM
Experimental: The mobility shift assay was performed as reported. Briefly, the reaction buffer consisted of 50 mM Hepes (pH 7.4), containing 10 mM MgCl2, 0.01 %(w/v) Brij-35, 1 mM dithiothreitol (DTT), 1 %(v/v) Protease Inhibitor Cocktail Set V [Calbiochem (EMD Millipore), Darmstadt, Germany], 1 %(v/v) Phosphatase Inhibitor Cocktail Set III [Calbiochem (EMD Millipore), Darmstadt, Germany], and 0.6 %(v/v) DMSO. […] The S6K1 protein (final concentration of 2 nM) in the reaction buffer was first incubated with different concentrations of the compounds (0–10 μM) for 30 min. […] The kinase reactions were performed at room temperature, and stopped by the addition of termination buffer [50 mM Hepes buffer (pH 7.4), containing 140 mM EDTA and 0.01 %(w/v) Brij-35]. The phosphorylated and unphosphorylated peptides thus obtained were separated and quantified with a Lab-Chip EZ Reader II (PerkinElmer, MA). Data were fitted using a sigmoidal dose–response regression algorithm in GraphPad Prism (GraphPad Software, La Jolla, CA).

T1 sequence (P23443 1-421 T412E): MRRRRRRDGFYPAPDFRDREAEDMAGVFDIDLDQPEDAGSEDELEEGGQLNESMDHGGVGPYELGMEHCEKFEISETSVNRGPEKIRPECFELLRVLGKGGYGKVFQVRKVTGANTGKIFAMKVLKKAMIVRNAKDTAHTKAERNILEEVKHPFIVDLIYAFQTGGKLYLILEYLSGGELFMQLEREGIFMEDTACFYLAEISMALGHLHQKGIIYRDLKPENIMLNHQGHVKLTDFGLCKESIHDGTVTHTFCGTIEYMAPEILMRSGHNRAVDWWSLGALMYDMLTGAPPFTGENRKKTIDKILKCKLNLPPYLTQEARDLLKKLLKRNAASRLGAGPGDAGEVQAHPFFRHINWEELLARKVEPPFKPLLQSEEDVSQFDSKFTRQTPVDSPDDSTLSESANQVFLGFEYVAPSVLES

Q: For `NS(=O)(=O)c1ccc(NC(=O)COC(=O)c2c3c(nc4ccccc24)CCCCC3)cc1` [Compound F176, 2-oxo-2-[(4-sulfamoylphenyl)amino]ethyl 7,8,9,10-tetrahydro-6H-cyclohepta[b]quinoline-11-carboxylate], which IC50 is on record?
A: The IC50 was 0.232 µM.

Q: For `O=C(Nc1cccc(C(F)(F)F)c1)C1CCN(c2ncnc3[nH]cnc23)CC1` [Compound F179, 1-(9H-purin-6-yl)-N-[3-(trifluoromethyl)phenyl]piperidine-4-carboxamide], which IC50 is on record?
A: Its IC50 is 0.206 µM.

Q: For `CC1CCc2nc3ccccc3c(C(=O)OC(C)C(=O)Nc3ccc(S(N)(=O)=O)cc3)c2C1` (centres unmarked) [Compound F177, 1-oxo-1-[(4-sulfamoylphenyl)amino]propan-2-yl-2-methyl-1,2,3,4-tetrahydroacridine-9-carboxylate], which IC50 is on record?
A: The IC50 was 0.567 µM.

Q: Which IC50 does the source give for `c1ccc2[nH]c(C3CCN(c4ncnc5[nH]ncc45)CC3)nc2c1` [Compound F108, 4-[4-(1H-benzimidazol-2-yl)piperidin-1-yl]-1H-pyrazolo[3,4-d]pyrimidine] here?
A: Its IC50 is 0.081 µM.

Q: How did the IC50 turn out when `C1=C(c2c[nH]c3ccccc23)CCN(c2ncnc3[nH]ncc23)C1` [Compound F109, 4-[4-(1H-indol-3-yl)-3,6-dihydropyridin-1(2H)-yl]-1H-pyrazolo[3,4-d]pyrimidine] was run?
A: Its IC50 is 0.033 µM.
